Here are results for six compounds from patent US10532065B2, “Bisphosphonic acid derivative and application for same” (NAGASAKI UNIVERSITY, priority 2014, dated 2020).

Structures are written as SMILES. Like-named read-outs stand apart in the source and are kept apart here.

Holding throughout (format): cell-based
Experiment [1] relates to U937 cells. As to the kind of experiment: U937 cell growth inhibition (direct antitumor action, CellTiterGlo). To be noted: for IC50: U937 cell growth inhibition, 4 days culture; for direct antitumor activity (in words): U937 growth inhibition. The method, then:
(§1) The direct antitumor action of bisphosphonic acid POM ester and bisphosphonic acid was studied by comparison using U937.
(§2) The direct antitumor action of various bisphosphonic acid POM esters was studied by comparison using U937 and EJ-1. The measurement was performed according to Experimental Example 2 and Experimental Example 4.
(In general: Cellular ATP, detected with luciferase, serves as a proxy for viable cell number.)

The test system of experiment [2] is EJ-1 cells. The experiment is described as follows: EJ-1 cell growth inhibition (direct antitumor action, CellTiterGlo). To be noted: for IC50: EJ-1 (bladder cancer) growth inhibition, 4 days culture; for direct antitumor activity (in words): EJ-1 growth inhibition. The method, then:
as §1
The direct antitumor action of bisphosphonic acid POM ester derivatives and bisphosphonic acids was studied by comparison using EJ-1. It was performed in the same manner as in Experimental Example 1 except that EJ-1 was used as the cell to be used. For recovery of the cells, a conventional EDTA trypsin treatment was performed.
The direct antitumor action of bisphosphonic acid POM esters and bisphosphonic acids was studied by comparison using EJ-1. It was performed in the same manner as in Experimental Example 2 except that EJ-1 was used as the cell to be used. For recovery of the cells, a conventional EDTA trypsin treatment was performed.
as §2

Experiment [3] relates to EJ-1 cells / γδ T cells. The experiment is described as follows: TNF-α production from γδ T cells stimulated by compound-pretreated EJ-1 cells (indirect antitumor action, ELISA). The following applies: for EC50: EJ-1 pretreated 4 hr with compound, 16 hr with γδ T cells, TNF-α ELISA, read-out: TNF-α50. As for the experimental part:
The indirect antitumor action of bisphosphonic acid POM esters and bisphosphonic acids was studied by comparison using EJ-1. In principle, EJ-1 is treated with a compound, washed, and reacted with γδ T cells, and the cytotoxic ability is studied by comparison, by quantifying TNF-α produced by γδ T cells during cell disordering. TNF-α is generally used as an index of γδ T cell induction ability and/or proliferative capacity, and γδ T cells are considered to be induced and/or proliferated in proportion to the TNF-α amount (Journal of Immunology, 154, 5986-5994 (1995)). Since the produced TNF-α is what is called a tumor necrosis factor, it is considered to have an action to lower proliferation of cancer cells or induce cell death.
Thereto was added a solution (500 μl) of compounds 3, 5, 6, 7, which are bisphosphonic acid POM ester derivatives, obtained by serially diluting 10 mM stock solution 10-fold from 20 μM, or a solution (500 μl) of bisphosphonic acid 10, 12, 13, 14 compound obtained by serially diluting 10-fold from 200 μM, and the cells were suspended well. These conical tubes were stood at 37° C. for 4 hr, and the cells were washed 3 times with 5 ml of culture medium. To these cells was added 500 μl of medium, and the cells were suspended well. […] The cell culture medium was suspended well, and the plate was centrifuged at 1,700 rpm, 4° C. for 2 min and the culture supernatant (150 μl) was taken and placed in another round-bottomed 96 well plate. The plate was frozen at −80° C. overnight, left standing at room temperature for 1 hr, stirred well and 100 μl thereof was subjected to ELISA of TNF-α. The content of TNF-α was calculated from the analytical curve of TNF-α. These were performed in triplicate, and a graph showing bisphosphonic acid POM ester derivative and the corresponding bisphosphonic acid as one pair was plotted. […] The results of bisphosphonic acid POM ester derivative are shown by -●-, and the results of bisphosphonic acid are shown by -◯-.
The indirect antitumor action of bisphosphonic acid POM esters and bisphosphonic acids was quantitatively studied by comparison using EJ-1. […] Thereto was added a solution (500 μl) of a bisphosphonic acid POM ester derivative obtained by serially diluting 10 mM stock solution 10-fold from 20 μM, or a bisphosphonic acid solution (500 μl) serially diluted 10-fold from 200 μM was added, and the cells were suspended well. These conical tubes were stood at 37° C. for 4 hr, and the cells were washed 3 times with 5 ml of culture medium. To these cells was added 500 μl of medium, and the cells were suspended well. […] The cell culture medium was suspended well, and the plate was centrifuged at 1,700 rpm, 4° C. for 2 min and the culture supernatant (150 μl) was taken and placed in another round-bottomed 96 well plate. The plate was frozen at −80° C. overnight, left standing at room temperature for 1 hr, stirred well and 100 μl thereof was subjected to ELISA of TNF-α. The content of TNF-α was calculated from the analytical curve of TNF-α. These were performed in triplicate, and a half of the concentration of compounds 1-7, which are bisphosphonic acid POM ester derivatives, and compounds 8-14, which are bisphosphonic acids, necessary for producing the maximum amount of TNF-α from γδ T cells was calculated as TNF-α50, and summarized in Table 6.
Therefore, the TNF-α50 value of various bisphosphonic acid POM ester derivatives was calculated. […] Thereto was added a solution (500 μl) of compounds 1-7 and 15-39, which are bisphosphonic acid POM ester derivatives, and compound 42, which is other bisphosphonic acid ester derivative, obtained by serially diluting 10 mM stock solution 10-fold from 20 μM, and the cells were suspended well. These conical tubes were stood at 37° C. for 4 hr, and the cells were washed 3 times with 5 ml of culture medium. To these cells was added 500 μl of medium, and the cells were suspended well. […]

The term IC50 denotes the midpoint of a concentration-inhibition curve. A low value points to greater potency.

Consider `CC(C)(C)C(=O)OCOP(=O)(OCOC(=O)C(C)(C)C)C(CNc1nc(-c2ccccc2)cs1)P(=O)(OCOC(=O)C(C)(C)C)OCOC(=O)C(C)(C)C` [Compound 35, tetrakispivaloyloxymethyl 2-(4-phenylthiazol-2-ylamino)ethylidene-1,1-bisphosphonate], for which the IC50 worked out at 1.1 µM in experiment [1] and 3.5 µM in experiment [2]. Moreover, the “direct antitumor activity (in words)” value in experiment [1] and in experiment [2] was “high activity” in each case. In addition, the EC50 in experiment [3] was greater than 10 µM.

Turning to `CC(C)(C)C(=O)OCOP(=O)(OCOC(=O)C(C)(C)C)C(CNc1ccon1)P(=O)(OCOC(=O)C(C)(C)C)OCOC(=O)C(C)(C)C` [Compound 36, tetrakispivaloyloxymethyl 2-(isoxazol-3-ylamino)ethylidene-1,1-bisphosphonate], the IC50 was 7.9 µM in experiment [1] and 15 µM in experiment [2]. Moreover, the EC50 in experiment [3] came out at 8 µM.

With `Cc1cc(NCC(P(=O)(OCOC(=O)C(C)(C)C)OCOC(=O)C(C)(C)C)P(=O)(OCOC(=O)C(C)(C)C)OCOC(=O)C(C)(C)C)no1` [Compound 37, tetrakispivaloyloxymethyl 2-(5-methylisoxazol-3-ylamino)ethylidene-1,1-bisphosphonate], the IC50 in experiment [1] is 7.9 µM; in experiment [2], 16 µM. The EC50 in experiment [3] was greater than 10 µM.

Regarding `CC(C)(C)C(=O)OCOP(=O)(OCOC(=O)C(C)(C)C)C(CNc1nncs1)P(=O)(OCOC(=O)C(C)(C)C)OCOC(=O)C(C)(C)C` [Compound 38, tetrakispivaloyloxymethyl 2-(1,3,4-thiadiazol-2-ylamino)ethylidene-1,1-bisphosphonate], the IC50 in experiment [1] worked out at 11 µM; in experiment [2] it was 8.5 µM. Further, the EC50 in experiment [3] is 1.9 µM.

Turning to `CC(C)(C)C(=O)OCOP(=O)(OCOC(=O)C(C)(C)C)C(CNc1ccncn1)P(=O)(OCOC(=O)C(C)(C)C)OCOC(=O)C(C)(C)C` [Compound 39, tetrakispivaloyloxymethyl 2-(pyrimidin-4-ylamino)ethylidene-1,1-bisphosphonate], the results for the IC50 in experiment [1] and in experiment [2] were 0.65 µM and 0.059 µM, respectively. The “direct antitumor activity (in words)” value in experiment [1] and in experiment [2] was “particularly high activity” throughout. Further, the EC50 in experiment [3] was 0.062 µM. In experiment [3] (EJ-1 pretreated with compound, γδ T cells), the “TNF-α production induction activity (in words)” value is “high activity”.

With `CC(=O)OCOP(=O)(OCOC(C)=O)C(CNc1ccccn1)P(=O)(OCOC(C)=O)OCOC(C)=O` [Compound 42, tetrakisacetyloxymethyl 2-(pyridin-2-ylamino) ethylidene-1,1-bisphosphonate], the IC50 amounted to 17 µM in experiment [1] (Homo sapiens, U-937, 96 h) and 16 µM in experiment [2] (EJ1, 96 h). Moreover, the EC50 in experiment [3] (EJ1) worked out at 7.1 µM.
